Key:
[1] = test system: myelin oligodendrocyte glycoprotein (MOG)-induced murine model of experimental autoimmune encephalomyelitis (EAE); assay: Electrophysiology (EMG, transcranial motor-evoked potentials) in EAE model; type: in vivo, C57BL/6J mice; details: for latency until reaching the main event / peak-to-peak (P2P) amplitude / latency: Day 10; for latency until reaching the main event: vehicle 10.05±2.59 ms; for peak-to-peak (P2P) amplitude: vehicle 7681.17±1505.12 μV; for latency: vehicle 6.94±0.59 ms; for rate of fibrillation (EMG): Day 21, vehicle printed 1.11±4.69 Hz
Procedure: (§1) The effect of Compound 1 on spasticity was evaluated in a myelin oligodendrocyte glycoprotein (MOG)-induced murine model of experimental autoimmune encephalomyelitis (EAE), a central nervous system (CNS) autoimmune demyelinating disease that mimics many of the clinical and pathologic features of multiple sclerosis. Gilgun-Sherki Y., et al., Neurosciences Research 47:201-207, 2003.
(§2) Study Design and Results. This study used sixty female young adult (10-11 weeks at study initiation) C57BL/6J mice sourced from Envigo RMS (Israel), Ltd. The animals were divided into five experimental groups:
(§3) Each group received a dose volume of 5 ml/kg, and the regimen was performed daily from day 0 to 22 of the study, QD. On study day 21, half of the animals in each group was treated and tested for electrophysiology and electromyography (EMG) two hours post dosing. On study day 22, the same was performed with the remaining half of the animals in each group.
(§4) FIG. 1 provides a representation of the study. Following baseline measurements, the MOG murine model begins with a sensitization period induced by the single subcutaneous (SC) injection of MOG emulsified in Complete Freund's adjuvant (CFA) on Study Day 0, followed by intraperitoneal (IP) supplemental immunostimulation with pertussis toxin (PT) carried out once at the day of EAE induction (study day 0) and once again 48 hours later (on study day 2). […] Mechanical allodynia was tested using the Von Frey test at Baseline and on Day 9 at various timepoints. For evaluation of spasticity, transcranial motor-evoked potentials (tcMEPs) were tested at Baseline and on Days 9 and 21-22 (half of the animals on each day). All animals were administered treatment once daily, starting on Day 0 until Day 22. Animals in Group 1 received oral (PO) treatment with the vehicle. Animals in Group 2 were treated with Fingolimod (FTY720; positive control) at a dose level of 3 mg/kg. PO. Animals in Groups 3 and 4 were treated with the test item Compound 1 at a dose level of 10 mg/kg or 3 mg/kg, PO, respectively. Animals in Group 5 were treated with Tizanidine at a dose level of 1 mg/kg, IP.
Electrophysiology: The animals were subjected to electrophysiology testing at Baseline and Days 10 and 21 of the study. The EMG, latency, latency to main event, duration, peak-to-peak (P2P) amplitude, and number of subpeaks were recorded.

[2] = test system: myelin oligodendrocyte glycoprotein (MOG)-induced murine model of experimental autoimmune encephalomyelitis (EAE); assay: Body weight in MOG-induced EAE model; type: in vivo, C57BL/6J mice; details: for BW compared to vehicle group: throughout the study
Procedure: as §1, §2, §3
as §4, with “Animals in Group 5 were treated with Tizanidine at a dose level of 1 mg/kg, IP.” left out

[3] = test system: rat model of spasticity induced by complete spinal cord transection; assay: Muscle spasms evoked by tibial nerve stimulation in chronic SCI rats; type: in vivo; details: for duration of action (muscle spasms): recordings up to 6 hours
Procedure: (§5) The efficacy of Compound 1 was measured in a rat model of spasticity induced by complete spinal cord transection. To induce muscle spasticity, a model of complete spinal cord transection cord at the eighth thoracic (T8) vertebral level was used. Five weeks after the Spinal Cord Injury (SCI), the rats were orally (P.O.) treated with Compound 1 (3, 10, or 30 mg/kg), Baclofen (4.5 mg/kg). Tizanidine (3 mg/kg) or vehicles alone (0.9% NaCl, Compound 1 vehicle), and the degree of spasticity response was measured using the rate-dependent depression (RDD) of the Hoffmann's reflex (H-reflex) and spasms induction.
(§6) Materials and Methods. […] One hundred and fifty-one SCI rats were maintained up to the end of the 5th post-injury week. One hundred and forty rats were submitted to P.O. administration of the test compounds and EMG analysis.
(§7) The rat was firmly restrained to immobilize the head. In an upright position, the gavage needle was passed along the side of the mouth. Following the roof of the mouth, the needle was advanced into the esophagus and toward the stomach. After the needle is passed to the correct length, the compound was slowly injected. The rats were randomly assigned to one of the test groups:
(§8) Electroneuromyographical recordings were performed in the right hind limbs before and 1, 2, 3, 4, 5 and 6 hours after P.O. administration.
(§9) Electromyographical (EMG) signals were amplified (100×) and bandpass filtered (300 Hz to 5 kHz; A-M Systems Amplifier. Everett, Washington; model 1700) before sampling at 13.5 kHz (Digidata 1440A, Molecular Devices). The tibial nerve was stimulated by using square pulses with increasing stimulus intensities (0.2 mA increments starting from 0.2 mA, 0.2 Hz, 0.2 ms; A-M systems stimulator, Model 2100) to obtain recruitment curves.
Muscles spasms: In awake chronic SCI rats, muscle spasms were evoked with stimulation of the tibial nerve while performing electromyographic (EMG) recordings from the flexor digitorum brevis (FDB) muscle. Spastic spinal rats were handled nine days before the experiment and progressively habituated to be individually constrained in a plexiglass tube and to immobilization of their paralyzed hindlimbs with tape. • 1. Hmax and Mmax determination: the tibial nerve was stimulated for 0.2 ms at 0.2 Hz with increasing current intensities (1-6 mA in 0.2 mA increments) until Mmax was stabilized. • 2. A supramaximal single-pulse stimulation to elicit muscle spasms was fixed throughout the experiment (2 or 3 times the threshold intensity for M-wave) and evoked 5 times, with 60 s interstimulus intervals. EMG were rectified and averaged over 2000 ms interval post-stimulus to quantify spasms (Clamplit 8.0, Axon Instruments).
(§10) Data analysis: H-reflex RDDs and areas under the curves (AUC) were determined as a measurement of spasticity and analyzed at each time point and for each frequency with Mann-Whitney test or with Kruskal Wallis one-way analysis of variance (ANOVA) test, followed by Dunn's multiple comparisons test. P<0.05 was considered significant. Significant differences were marked with asterisks (*) according to their respective P-values: values were expressed as the mean value±standard error of the mean (SEM) in all graphs. All statistical analyses were performed using GraphPad Prism 7 (San Diego, California, USA).
Modulation of Muscle Spasms. When the tibial nerve was stimulated in acutely (1 week after injury) injured rats, little reflexes were evoked in the FDB muscle (FIG. 8A), regardless of the stimulation intensity. In contrast, stimulation of the tibial nerve in chronic (5 weeks after injury) SCI rats produced more (P<0.0001; Mann-Whitney test; FIG. 8C) long-lasting muscle contractions (FIG. 8B). This effect is a reliable correlate of the development of spasticity. In spastic rats, spasms were induced through the FDB muscle after electrical stimulation of the tibial nerve. […]

[4] = test system: rat model of spasticity induced by complete spinal cord transection; assay: Rate-dependent depression (RDD) of the H-reflex in SCI rats; type: in vivo; details: for mean relative amplitudes of the H-reflex (RDD), effect on spasticity / mean relative amplitudes of the H-reflex (RDD): SCI rats 5 weeks after injury; for duration of action (H-reflex RDD): recordings up to 6 hours
Procedure: as §5, §6, §7, §8, §9
RDD of the H-reflex: To induce sedation, intraperitoneal injection of ketamine (100 mg/kg; Imalgen®) was used to suppress voluntary movements and increase muscle tone. Rats thorax and hindlimbs were secured on a heating pad with adhesive tape. The following series of measurements were repeated throughout the experiment: • 1. Hmax and Mmax determination: the tibial nerve was stimulated for 0.2 ms at 0.2 Hz with increasing current intensities (1-6 mA in 0.1 mA increments) until Mmax was stabilized. • 2. RDD measurement: the intensity necessary to obtain a maximal H-reflex was used for trains of 13 stimulations at 0.2, 1, 2 and 5 Hz with 2 min intervals between each train of stimulations. A whole series of measurements lasted about 15 minutes. • 3. Determination of the level of RDD: at the different frequencies, responses to the first three stimulations necessary for the depression to occur were discarded, and all the responses were expressed as percentages relative to the mean response at 0.2 Hz in the same series of measurements.
as §10
Modulation of the RDD of the H-reflex. The Hoffmann reflex was used to assess primary (type 1a) afferents-mediated motoneuronal excitability in rats suffering from spasticity. Electromyograms typically show two responses: an initial M wave (FIG. 6B) resulting from the direct activation of motor axons (FIG. 6A-1), and a delayed H wave (FIG. 6B) resulting from the monosynaptic activation of motoneurons by the afferents (FIG. 6A-2). […]

[5] = test system: myelin oligodendrocyte glycoprotein (MOG)-induced murine model of experimental autoimmune encephalomyelitis (EAE); assay: EAE clinical score and AUC; type: in vivo, C57BL/6J mice
Procedure: as §1, §2
as §4, with “Animals in Group 1 received oral (PO) treatment with the vehicle. Animals in Group 2 were treated with Fingolimod (FTY720; positive control) at a dose level of 3 mg/kg. PO. Animals in Groups 3 and 4 were treated with the test item Compound 1 at a dose level of 10 mg/kg or 3 mg/kg, PO, respectively. Animals in Group 5 were treated with Tizanidine at a dose level of 1 mg/kg, IP.” left out

[6] = test system: myelin oligodendrocyte glycoprotein (MOG)-induced murine model of experimental autoimmune encephalomyelitis (EAE); assay: Mechanical allodynia evaluation (Von Frey testing) in EAE model; type: in vivo, C57BL/6J mice; details: Day 9
Procedure: as §1, §2, §4
Mechanical Allodynia Evaluation (Von Frey Testing): Animals were tested for mechanical allodynia using the Von Frey test at Baseline, and then on Day 9 at 0.5 hours ([…]), 1.5 hours, 3.5 hours (all groups) and 5.5 hours (Groups 1-4 only) post-dose.

[7] = both dose levels (10 and 3 mg/kg PO QD)

Clc1ccc2nsnc2c1NC1=NCCN1 [Tizanidine, reference compound]
latency until reaching the main event ([1]; 1 mg/kg IP QD): 5.64 ± 0.19 ms | peak-to-peak (P2P) amplitude ([1]; 1 mg/kg IP QD): 13488.71±1234.10 μV | mean BW presented as percentage from Baseline ([2]; 1 mg/kg IP QD, Day 16, vehicle 82.06±2.35%): 91.31±1.59% | maximum effect, time (muscle spasms) ([3]; single P.O. 3 mg/kg): 3 h | muscle spasms (AUC) ([3]; single P.O. 3 mg/kg): reduced | onset of action (muscle spasms) ([3]; single P.O. 3 mg/kg): 2 h | maximum effect, time (H-reflex RDD) ([4]; single P.O. 3 mg/kg): 2 h | onset of action (H-reflex RDD) ([4]; single P.O. 3 mg/kg): 2 h | mean relative amplitudes of the H-reflex (RDD), effect on spasticity ([4]; single P.O. 3 mg/kg): significantly reduced | clinical score compared to the vehicle ([5]; 1 mg/kg IP QD): did not result in a significant reduction | withdrawal force threshold (Von Frey) ([6]; 1 mg/kg IP, 3.5 hours post dosing, vehicle 0.78±0.06 g): 1.32 ± 0.15 g | withdrawal force threshold compared to vehicle ([6]; 1 mg/kg IP, all timepoints (0.5, 1.5, and 3.5 hours) post-dose): higher withdrawal force threshold

NCC(CC(=O)O)c1ccc(Cl)cc1 (stereo not drawn) [Baclofen, reference compound]
maximum effect, time (muscle spasms) ([3]; single P.O. 4.5 mg/kg): 2 h | muscle spasms (AUC) ([3]; single P.O. 4.5 mg/kg): reduced | onset of action (muscle spasms) ([3]; single P.O. 4.5 mg/kg): 1 h | maximum effect, time (H-reflex RDD) ([4]; single P.O. 4.5 mg/kg): 5 h | onset of action (H-reflex RDD) ([4]; single P.O. 4.5 mg/kg): 1 h | mean relative amplitudes of the H-reflex (RDD) ([4]; single P.O. 4.5 mg/kg): significantly reduced

CC(C)C[C@](C)(N)COc1ccc(-c2ccnc(C(F)F)c2)nc1C(F)F [Compound 1, (S)-1-((2′,6-bis(difluoromethyl)-[2,4′-bipyridin]-5-yl)oxy)-2,4-dimethylpentan-2-amine]
latency ([1]; 3 mg/kg PO QD): 5.31 ± 0.21 ms | latency until reaching the main event ([1]; 3 mg/kg PO QD): 5.32 ± 0.22 ms | peak-to-peak (P2P) amplitude ([1]; 3 mg/kg PO QD): 11321.67±1321.68 μV | rate of fibrillation (EMG) ([1]; 3 mg/kg PO QD): 0.38±0.38 Hz | latency ([1]; 10 mg/kg PO QD): 5.54 ± 0.22 ms | peak-to-peak (P2P) amplitude ([1]; 10 mg/kg PO QD): 11613.75±1154.41 μV | rate of fibrillation (EMG) ([1]; 10 mg/kg PO QD): 1.22±0.57 Hz | duration compared to vehicle treated animals [1, 7]: reduced | number of sub potentials compared to vehicle treated animals [1, 7]: reduced | BW compared to vehicle group ([2]; 3 mg/kg PO QD): not significantly different from the vehicle group | BW compared to vehicle group ([2]; 10 mg/kg PO QD): not significantly different from the vehicle group | onset of action (muscle spasms) ([3]; single P.O. 3 mg/kg): 1 h | duration of action (muscle spasms) ([3]; single P.O. 3 mg/kg): 5 h | onset of action (muscle spasms) ([3]; single P.O. 10 mg/kg): 1 h | duration of action (muscle spasms) ([3]; single P.O. 10 mg/kg): 3 h | onset of action (muscle spasms) ([3]; single P.O. 30 mg/kg): 1 h | duration of action (muscle spasms) ([3]; single P.O. 30 mg/kg): 5 h | muscle spasms (AUC) ([3]; single P.O., all tested dosages (3, 10, 30 mg/kg), n=10): significantly reduced | mean relative amplitudes of the H-reflex (RDD), effect on spasticity ([4]; single P.O. 3 mg/kg): did not appear to affect spasticity | onset of action (H-reflex RDD) ([4]; single P.O. 10 mg/kg): 1 h | mean relative amplitudes of the H-reflex (RDD) ([4]; single P.O. 10 mg/kg): significantly reduced | duration of action (H-reflex RDD) ([4]; single P.O. 10 mg/kg): at least 6 hour | onset of action (H-reflex RDD) ([4]; single P.O. 30 mg/kg): 1 h | mean relative amplitudes of the H-reflex (RDD) ([4]; single P.O. 30 mg/kg): significantly reduced | duration of action (H-reflex RDD) ([4]; single P.O. 30 mg/kg): at least 6 hours | clinical score compared to the vehicle ([5]; 10 mg/kg or 3 mg/kg PO QD): did not result in a significant reduction | withdrawal force threshold compared to the vehicle-treated group ([6]; 3 mg/kg PO, all timepoints post dosing): higher withdrawal force threshold compared to the vehicle-treated group | withdrawal force threshold (Von Frey) ([6]; 10 mg/kg PO, 1.5 hours post dosing, vehicle 0.89±0.11 g): 1.48 ± 0.10 g | withdrawal force threshold (Von Frey) ([6]; 10 mg/kg PO, 3.5 hours post dosing, vehicle 0.78±0.06 g): 1.36 ± 0.09 g | withdrawal force threshold (Von Frey) ([6]; 10 mg/kg PO, 5.5 hours post dosing, vehicle 0.82±0.08 g): 1.52 ± 0.13 g

Source: patent publication US12648939B2, “Compounds and methods for treating spasticity” (Lexicon Pharmaceuticals, Inc., priority 2022, dated 2026)
